From ChEMBL document CHEMBL4804283, “Stk19 inhibitors for treatment of cancer” (2020)
Active and inactive are the calls of the source. The rule behind the calls is not given here.

Tests used:
[1] = biological target: T1, Inactive serine/threonine-protein kinase 19 (Homo sapiens) (UniProt P49842); test: Inhibition of STK19 in human SK-MEL-2 cells expressing NRAS Q61R and wild-type BRAF at 100 nM assessed as H3K9 methylation relative to control; format: cell-based
T1 sequence (whole entry): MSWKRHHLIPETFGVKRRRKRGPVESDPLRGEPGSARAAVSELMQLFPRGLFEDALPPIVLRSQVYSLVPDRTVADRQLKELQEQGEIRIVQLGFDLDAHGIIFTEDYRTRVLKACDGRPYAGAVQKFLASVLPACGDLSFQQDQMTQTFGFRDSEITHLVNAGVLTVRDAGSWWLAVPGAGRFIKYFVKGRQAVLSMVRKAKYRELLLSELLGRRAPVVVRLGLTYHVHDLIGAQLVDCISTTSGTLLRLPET

[2] = biological target: T1, Inactive serine/threonine-protein kinase 19 (Homo sapiens); test: Inhibition of STK19 in STK19-depleted human primary melanocytes expressing wild-type STK19 at 1-3 uM assessed as NRAS phosphorylation relative to control; format: tissue-based; settings: Melanocyte
[3] = test system: SK-MEL-2; test: Inhibition of STK19 in nude mouse xenografted with human SK-MEL-2 cells assessed as decrease in NRAS phosphorylation at 25 mg/kg; format: functional, organism-based
[4] = biological target: T1, Inactive serine/threonine-protein kinase 19 (Homo sapiens); test: Inhibition of STK19 in human WM2032 cells expressing NRAS Q61R and wild-type BRAF at 100 nM assessed as H3K9 methylation relative to control; format: cell-based
[5] = test system: SK-MEL-2; test: Antitumor activity against human SK-MEL-2 cells xenografted in nude mouse assessed as induction of apoptosis at 50 mg/kg, administered for 21 days; format: functional, organism-based
[6] = Toxicity in C57BL/6J mouse assessed as effect on total bilirubin level at 25 mg/kg, administered twice daily for 20 days; format: organism-based; settings: in vivo, 480 h
[7] = biological target: T1, Inactive serine/threonine-protein kinase 19 (Homo sapiens); test: Inhibition of STK19 in human WM2032 cells expressing NRAS Q61R and wild-type BRAF at 300 nM assessed as H3K9 methylation relative to control; format: cell-based
[8] = Toxicity in C57BL/6J mouse assessed as effect on aspartate aminotransferase level at 25 mg/kg, administered twice daily for 20 days; format: organism-based; settings: in vivo, 480 h
[9] = biological target: T1, Inactive serine/threonine-protein kinase 19 (Homo sapiens); test: Inhibition of STK19 in human WM2032 cells expressing NRAS Q61R and wild-type BRAF at 1-3 uM assessed as PI3K signaling relative to control; format: cell-based
[10] = test system: A-375; test: Growth inhibition of human A375 cells expressing wild-type NRAS and BRAF V600E mutant at 1-3 uM relative to control; format: functional, cell-based
[11] = biological target: T2, Histone-lysine N-methyltransferase EHMT2 (Homo sapiens) (UniProt Q96KQ7); test: Inhibition of G9a in human SK-MEL-2 cells expressing NRAS Q61R and wild-type BRAF at 100-300 nM relative to control; format: cell-based
T2 sequence (whole entry): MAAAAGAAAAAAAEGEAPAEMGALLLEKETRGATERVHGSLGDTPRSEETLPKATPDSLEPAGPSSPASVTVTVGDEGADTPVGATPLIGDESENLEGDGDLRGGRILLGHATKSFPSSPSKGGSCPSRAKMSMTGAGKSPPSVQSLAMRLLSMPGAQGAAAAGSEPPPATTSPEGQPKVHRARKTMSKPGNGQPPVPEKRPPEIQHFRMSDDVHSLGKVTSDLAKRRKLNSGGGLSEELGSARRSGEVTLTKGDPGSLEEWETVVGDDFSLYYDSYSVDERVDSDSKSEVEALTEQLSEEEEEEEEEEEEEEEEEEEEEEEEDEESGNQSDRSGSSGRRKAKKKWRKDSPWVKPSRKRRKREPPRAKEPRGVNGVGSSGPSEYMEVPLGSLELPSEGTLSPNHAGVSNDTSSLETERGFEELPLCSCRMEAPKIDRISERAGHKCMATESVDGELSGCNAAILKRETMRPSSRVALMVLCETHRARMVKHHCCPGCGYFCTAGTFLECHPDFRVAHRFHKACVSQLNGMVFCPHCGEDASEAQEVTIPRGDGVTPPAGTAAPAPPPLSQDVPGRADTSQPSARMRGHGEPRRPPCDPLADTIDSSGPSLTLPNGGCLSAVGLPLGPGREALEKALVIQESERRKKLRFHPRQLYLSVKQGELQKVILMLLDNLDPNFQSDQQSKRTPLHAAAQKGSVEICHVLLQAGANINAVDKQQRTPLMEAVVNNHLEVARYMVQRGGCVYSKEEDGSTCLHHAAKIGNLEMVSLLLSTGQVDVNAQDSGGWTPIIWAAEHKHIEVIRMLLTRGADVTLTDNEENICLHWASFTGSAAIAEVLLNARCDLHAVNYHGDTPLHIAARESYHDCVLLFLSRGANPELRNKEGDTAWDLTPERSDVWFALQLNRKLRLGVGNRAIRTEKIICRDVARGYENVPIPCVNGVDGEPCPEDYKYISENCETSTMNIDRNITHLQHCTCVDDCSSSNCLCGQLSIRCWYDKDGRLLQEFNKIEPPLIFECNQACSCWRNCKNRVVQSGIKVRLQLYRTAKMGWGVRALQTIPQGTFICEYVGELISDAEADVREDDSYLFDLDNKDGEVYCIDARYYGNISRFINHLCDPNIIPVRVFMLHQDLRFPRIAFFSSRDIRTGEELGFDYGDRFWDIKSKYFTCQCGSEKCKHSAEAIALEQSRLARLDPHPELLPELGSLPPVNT

[12] = Toxicity in C57BL/6J mouse assessed as effect on alkaline phosphatase level at 25 mg/kg, administered twice daily for 20 days; format: organism-based; settings: in vivo, 480 h
[13] = Toxicity in C57BL/6J mouse assessed as effect on alanine aminotransferase level at 25 mg/kg, administered twice daily for 20 days; format: organism-based; settings: in vivo, 480 h
[14] = Toxicity in C57BL/6J mouse assessed as brain histology at 25 mg/kg, administered twice daily for 20 days by H and E staining method; format: organism-based; settings: in vivo, 480 h
[15] = biological target: T1, Inactive serine/threonine-protein kinase 19 (Homo sapiens); test: Inhibition of STK19 in human SK-MEL-2 cells expressing NRAS Q61R and wild-type BRAF at 1-3 uM assessed as NRAS signaling relative to control; format: cell-based
[16] = test system: UACC-62; test: Induction of apoptosis in human UACC62 cells expressing wild-type NRAS and BRAF V600E mutant at 1-3 uM relative to control; format: functional, cell-based
[17] = biological target: T1, Inactive serine/threonine-protein kinase 19 (Homo sapiens); test: Inhibition of STK19 in human WM2032 cells expressing NRAS Q61R and wild-type BRAF at 100 nM assessed as NRAS phosphorylation relative to control; format: cell-based
[18] = biological target: T1, Inactive serine/threonine-protein kinase 19 (Homo sapiens); test: Inhibition of STK19 in human WM2032 cells expressing NRAS Q61R and wild-type BRAF at 300 nM assessed as NRAS phosphorylation relative to control; format: cell-based
[19] = Toxicity in C57BL/6J mouse assessed as lung histology at 25 mg/kg, administered twice daily for 20 days by H and E staining method; format: organism-based; settings: in vivo, 480 h
[20] = test system: SK-MEL-2; test: Inhibition of G9a in nude mouse xenografted with human SK-MEL-2 cells assessed as decrease in H3K9 methylation at 50 mg/kg; format: functional, organism-based

COc1cc2nc(NC3CC3)nc(NC3CCN(C(C)C)CC3)c2cc1OC.O=C(O)C(F)(F)F
inhibition [1]: inactive | inhibition [2]: Active | inhibition [3]: Active | inhibition [4]: inactive | Activity [5]: Active | Activity [6]: Non-Toxic | inhibition [7]: inactive | Activity [8]: Non-Toxic | inhibition [9]: Active | Activity [10]: inactive | inhibition [11]: inactive | Activity [12]: Non-Toxic | Activity [13]: Non-Toxic | Activity [14]: Non-Toxic | inhibition [15]: Active | Activity [16]: inactive | inhibition [17]: Active | inhibition [18]: Active | Activity [19]: Non-Toxic | inhibition [20]: inactive
